# Measured values published in publication PMC6128854 (Scientific Reports, 2018).
# Positions of bridges follow the written chain, without caps; N, C: chain ends. Non-standard residues stand in square brackets, D forms with d. Residues, ends and D or L forms follow the SMILES beside them. Hyp = O=C(O)[C@@H]1C[C@@H](O)CN1
# What was measured:
# endogenous human Cav1.3 = endogenous human Cav1.3 (Homo sapiens, UniProt Q01668)
# endogenous human Cav3.1 = endogenous human Cav3.1 (Homo sapiens, UniProt O43497)
# [1] = molecular target: N-type calcium channel currents (Cav2.2) in rDRG neurons (Rattus norvegicus, UniProt Q02294); test: cell-based; conditions: SEM
# side effects in rats = conditions: rat, in vivo
# Chain of endogenous human Cav1.3 (Q01668 whole entry): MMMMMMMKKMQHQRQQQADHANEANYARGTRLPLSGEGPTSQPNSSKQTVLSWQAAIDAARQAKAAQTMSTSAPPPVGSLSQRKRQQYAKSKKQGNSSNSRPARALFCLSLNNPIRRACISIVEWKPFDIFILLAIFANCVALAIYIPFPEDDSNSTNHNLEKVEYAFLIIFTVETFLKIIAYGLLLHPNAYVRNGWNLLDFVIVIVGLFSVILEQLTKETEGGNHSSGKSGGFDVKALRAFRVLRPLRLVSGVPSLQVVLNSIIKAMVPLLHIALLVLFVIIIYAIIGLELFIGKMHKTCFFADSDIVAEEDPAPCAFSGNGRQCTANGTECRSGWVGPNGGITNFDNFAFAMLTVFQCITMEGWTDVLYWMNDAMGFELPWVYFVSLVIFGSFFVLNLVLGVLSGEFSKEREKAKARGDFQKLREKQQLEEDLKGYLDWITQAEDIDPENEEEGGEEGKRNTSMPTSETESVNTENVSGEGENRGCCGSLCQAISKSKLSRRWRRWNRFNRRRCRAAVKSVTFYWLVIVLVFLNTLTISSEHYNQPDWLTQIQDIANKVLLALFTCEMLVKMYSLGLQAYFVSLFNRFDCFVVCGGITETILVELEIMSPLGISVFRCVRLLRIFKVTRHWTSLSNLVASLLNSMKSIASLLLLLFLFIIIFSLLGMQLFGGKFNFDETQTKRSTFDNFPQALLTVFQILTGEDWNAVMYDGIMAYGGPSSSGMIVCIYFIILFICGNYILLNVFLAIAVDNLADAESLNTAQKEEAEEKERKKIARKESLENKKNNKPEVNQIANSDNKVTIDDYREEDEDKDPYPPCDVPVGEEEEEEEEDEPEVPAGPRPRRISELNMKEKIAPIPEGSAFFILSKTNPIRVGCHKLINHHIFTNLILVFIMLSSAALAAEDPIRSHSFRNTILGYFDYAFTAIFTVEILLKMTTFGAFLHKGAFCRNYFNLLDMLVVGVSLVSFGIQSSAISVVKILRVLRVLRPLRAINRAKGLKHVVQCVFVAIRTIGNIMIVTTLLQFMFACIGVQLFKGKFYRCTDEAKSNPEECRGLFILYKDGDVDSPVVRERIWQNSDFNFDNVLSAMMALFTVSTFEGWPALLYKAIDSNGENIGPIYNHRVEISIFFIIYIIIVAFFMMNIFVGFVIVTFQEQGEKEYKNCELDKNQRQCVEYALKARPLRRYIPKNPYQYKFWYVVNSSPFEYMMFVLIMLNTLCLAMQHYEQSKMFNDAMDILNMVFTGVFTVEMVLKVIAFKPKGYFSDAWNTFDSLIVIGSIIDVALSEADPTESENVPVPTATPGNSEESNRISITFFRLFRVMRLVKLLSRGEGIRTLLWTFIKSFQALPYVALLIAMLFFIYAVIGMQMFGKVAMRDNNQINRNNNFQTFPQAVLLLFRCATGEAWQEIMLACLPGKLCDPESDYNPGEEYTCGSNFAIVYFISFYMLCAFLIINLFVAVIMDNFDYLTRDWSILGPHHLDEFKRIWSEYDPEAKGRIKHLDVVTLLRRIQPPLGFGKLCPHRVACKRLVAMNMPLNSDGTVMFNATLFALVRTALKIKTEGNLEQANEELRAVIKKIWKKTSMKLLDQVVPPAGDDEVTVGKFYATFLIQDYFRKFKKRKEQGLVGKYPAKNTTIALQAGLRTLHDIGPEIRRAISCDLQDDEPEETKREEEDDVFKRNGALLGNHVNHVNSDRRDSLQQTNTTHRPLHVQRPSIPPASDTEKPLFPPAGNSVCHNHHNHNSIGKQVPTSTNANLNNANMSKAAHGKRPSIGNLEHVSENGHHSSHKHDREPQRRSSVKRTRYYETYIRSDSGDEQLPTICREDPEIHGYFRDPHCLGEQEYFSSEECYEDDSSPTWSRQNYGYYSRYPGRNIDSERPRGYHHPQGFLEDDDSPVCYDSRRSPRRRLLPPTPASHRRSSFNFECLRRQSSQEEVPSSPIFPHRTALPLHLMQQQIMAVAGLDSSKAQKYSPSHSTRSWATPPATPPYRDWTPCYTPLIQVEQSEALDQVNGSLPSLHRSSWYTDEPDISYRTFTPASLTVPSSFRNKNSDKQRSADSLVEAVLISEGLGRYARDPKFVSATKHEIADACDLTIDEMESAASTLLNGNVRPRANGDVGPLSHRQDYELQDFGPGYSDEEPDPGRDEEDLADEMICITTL
# Chain of endogenous human Cav1.3 (P54289 25-956 partner limits assumed): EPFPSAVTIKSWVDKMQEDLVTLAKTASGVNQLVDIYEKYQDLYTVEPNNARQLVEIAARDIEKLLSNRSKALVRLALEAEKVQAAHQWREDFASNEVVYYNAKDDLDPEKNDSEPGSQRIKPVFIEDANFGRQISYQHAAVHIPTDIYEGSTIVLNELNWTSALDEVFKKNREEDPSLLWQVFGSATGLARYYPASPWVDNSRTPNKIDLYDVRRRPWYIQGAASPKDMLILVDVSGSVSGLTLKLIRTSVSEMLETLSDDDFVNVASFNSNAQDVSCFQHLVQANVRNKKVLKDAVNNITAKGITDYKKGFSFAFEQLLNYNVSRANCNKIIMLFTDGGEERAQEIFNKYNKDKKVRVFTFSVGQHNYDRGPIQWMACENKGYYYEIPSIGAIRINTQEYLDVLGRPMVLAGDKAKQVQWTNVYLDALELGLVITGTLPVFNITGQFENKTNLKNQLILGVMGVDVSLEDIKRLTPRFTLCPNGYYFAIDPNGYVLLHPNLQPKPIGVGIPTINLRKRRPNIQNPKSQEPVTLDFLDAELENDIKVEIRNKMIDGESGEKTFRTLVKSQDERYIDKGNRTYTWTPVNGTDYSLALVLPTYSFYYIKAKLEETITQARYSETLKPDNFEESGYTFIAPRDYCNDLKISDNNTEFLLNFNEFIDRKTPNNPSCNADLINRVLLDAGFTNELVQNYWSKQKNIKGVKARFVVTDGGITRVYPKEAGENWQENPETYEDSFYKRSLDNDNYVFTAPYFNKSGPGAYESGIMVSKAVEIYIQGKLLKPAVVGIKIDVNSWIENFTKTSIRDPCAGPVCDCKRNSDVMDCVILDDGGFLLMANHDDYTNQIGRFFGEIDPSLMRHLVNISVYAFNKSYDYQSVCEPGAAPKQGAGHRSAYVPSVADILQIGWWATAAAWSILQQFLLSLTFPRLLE
# Chain of endogenous human Cav1.3 (P54289 957-1103 partner limits assumed): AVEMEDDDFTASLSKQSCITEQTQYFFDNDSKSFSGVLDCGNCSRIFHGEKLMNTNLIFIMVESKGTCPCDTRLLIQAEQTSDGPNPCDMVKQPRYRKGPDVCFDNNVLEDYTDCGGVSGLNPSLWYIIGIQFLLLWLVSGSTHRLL
# Chain of endogenous human Cav1.3 (P54284 whole entry partner): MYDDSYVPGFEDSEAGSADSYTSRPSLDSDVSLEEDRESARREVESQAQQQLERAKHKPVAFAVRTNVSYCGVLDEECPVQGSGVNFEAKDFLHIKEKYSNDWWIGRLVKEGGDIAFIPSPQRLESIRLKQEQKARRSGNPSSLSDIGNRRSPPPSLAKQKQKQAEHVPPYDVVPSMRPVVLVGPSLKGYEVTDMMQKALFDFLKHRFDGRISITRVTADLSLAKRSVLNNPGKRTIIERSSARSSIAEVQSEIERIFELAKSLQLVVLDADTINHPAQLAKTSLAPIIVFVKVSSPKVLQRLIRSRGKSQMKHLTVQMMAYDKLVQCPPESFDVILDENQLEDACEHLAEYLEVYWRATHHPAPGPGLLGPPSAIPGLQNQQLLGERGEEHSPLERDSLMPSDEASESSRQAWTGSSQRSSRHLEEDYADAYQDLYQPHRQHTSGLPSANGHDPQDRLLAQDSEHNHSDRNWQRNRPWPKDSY
SMILES,activity at endogenous human Cav1.3 (endogenous human Cav1.3),activity at endogenous human Cav3.1 (endogenous human Cav3.1),IC50 [1],duration of side effects (side effects in rats),therapeutic index (ratio of ED50 visual side effect score to ED50 mechanical PWT) (side effects in rats),ED50 for visual side effect score (side effects in rats; SEM)
"CC[C@H](C)[C@@H]1NC(=O)[C@@H]2CSSC[C@@H]3NC(=O)[C@H](CCCCN)NC(=O)[C@H](CO)NC(=O)CNC(=O)[C@@H]4C[C@@H](O)CN4C(=O)[C@@H]4CCCN4C(=O)[C@H](CCCCN)NC(=O)[C@@H](N)CSSC[C@H](NC(=O)[C@H](CSSC[C@@H](C(=O)N[C@@H](CCCNC(=N)N)C(=O)N[C@@H](CCCCN)C(=O)N[C@@H](Cc4ccc(O)cc4)C(=O)N[C@@H](Cc4ccc(O)cc4)C(=O)N[C@@H](CC(N)=O)C(=O)O)NC(=O)[C@H](CCCNC(=N)N)NC(=O)[C@H](CCCCN)NC(=O)[C@H]([C@@H](C)O)NC(=O)[C@H](Cc4ccc(O)cc4)NC(=O)[C@H](CO)NC1=O)NC(=O)[C@H](CC(=O)O)NC(=O)[C@H](CCCNC(=N)N)NC(=O)[C@H](CCSC)NC(=O)[C@H](CO)NC(=O)[C@@H]1C[C@@H](O)CN1C(=O)[C@H](CO)NC3=O)C(=O)N[C@@H]([C@@H](C)O)C(=O)N[C@@H]([C@@H](C)O)C(=O)N2 [MoVIA] (H-CKP[Hyp]GSKCS[Hyp]SMRDCCTTCISYTKRCRKYYN-OH; disulfide 1-16, 8-19, 15-26)",inactive,inactive,80 ± 10 nM,–,–,–
"CC[C@H](C)[C@@H]1NC(=O)[C@@H]2CSSC[C@@H]3NC(=O)[C@H](CCCCN)NC(=O)[C@H](CO)NC(=O)CNC(=O)[C@@H]4C[C@@H](O)CN4C(=O)[C@@H]4CCCN4C(=O)[C@H](CCCCN)NC(=O)[C@@H](N)CSSC[C@H](NC(=O)[C@H](CSSC[C@@H](C(=O)N[C@@H](CCCNC(=N)N)C(=O)N[C@@H](CCCCN)C(=O)N[C@@H](Cc4ccc(O)cc4)C(=O)N[C@@H](Cc4ccc(O)cc4)C(=O)O)NC(=O)[C@H](CCCNC(=N)N)NC(=O)[C@H](CCCCN)NC(=O)[C@H]([C@@H](C)O)NC(=O)[C@H](Cc4ccc(O)cc4)NC(=O)[C@H](CO)NC1=O)NC(=O)[C@H](CC(=O)O)NC(=O)[C@H](CCCNC(=N)N)NC(=O)[C@H](CCSC)NC(=O)[C@H](CO)NC(=O)[C@@H]1C[C@@H](O)CN1C(=O)[C@H](CO)NC3=O)C(=O)N[C@@H]([C@@H](C)O)C(=O)N[C@@H]([C@@H](C)O)C(=O)N2 [MoVIB] (H-CKP[Hyp]GSKCS[Hyp]SMRDCCTTCISYTKRCRKYY-OH; disulfide 1-16, 8-19, 15-26)",inactive,inactive,180 ± 30 nM,up to 4 h,2.2,0.09 ± 0.05 nmol
